Test system: RbAp48 mRNA expression in hippocampus
Test: RbAp48 transcript in situ hybridization in adult hippocampus after injection of kainic acid (synaptic stimulation)
Type: in vivo, mouse
Conditions: wild type mice
Procedure: FIG. 14: RbAp48 transcript distribution in the adult hippocampus of wild type mice in either control conditions (injection of saline) of after injection of kainic acid (synaptic stimulation). Coronal cryosections were hybridized with radio-labelled oligonucleotides specific for RbAp48. […] This upregulation of RbAp48 lasted for four hours (8 hr to 12 hr time points).
RNA In Situ Hybridizations: RNA in situ hybridizations were performed on fresh frozen adult brain slices using 40-45 base anti-sense oligonucleotides^37. The oligonucleotides used for the detection of RbAp48-DN-Flag and RbAp48 transcripts can be found in supplemental table 3.
Treatment with Kainic Acid Kainic acid (Sigma) was injected intraperitoneally as previously described^42
Because RbAp48 regulates histone acetylation, it was explored whether RbAp48-DN affects the steady state levels of histone acetylation in the hippocampal formation using immunohistochemistry and image quantification analysis to measure histone acetylation. The initial focus was on the DG. […] To test for spatial specificity, the CA1 subregion was examined and no significant reduction in histone acetylation (FIGS. 12c & 12d) was found. As with behavior and fMRI, the effect of RbAp48-DN on H2B and H4 acetylation in the adult DG was reversed when its expression was turned off (mice on dox; FIGS. 12c & 12d).

C=C(C)[C@H]1CN[C@H](C(=O)O)[C@H]1CC(=O)O [kainic acid]
Duration of upregulation of RbAp48 (dentate gyrus, 8 hr to 12 hr time points after kainic acid): four
Expression of RbAp48 (transcript distribution in adult hippocampus) (intraperitoneal kainic acid vs saline, eight hours after application, radio-labelled oligonucleotide in situ hybridization): upregulated specifically in the dentate gyrus

Source: patent US9387263B2, “RbAp48 transgenic mice for drug discovery in age-related memory decline” (THE TRUSTEES OF COLUMBIA UNIVERSITY IN THE CITY OF NEW YORK, priority 2011, dated 2016)
